According to patent publication US11192877B2, “3-(5-hydroxy-1-oxoisoindolin-2-yl)piperidine-2,6-dione derivatives and uses thereof” (Novartis AG, priority 2018, dated 2021):

Target: IKZF2 (Helios) (Homo sapiens, UniProt Q96SW2+Q9UKS7)
Assay: Prolabel quantification of IKZF2 protein levels in 293GT cells
Type: cell-based
Conditions: 24 h, Pro-label assay, 293GT cells, 10 μM, read-out: IKZF2 % protein reduction at 10 μM, 24 h

IKZF2 (Helios), sequence (Q9UKS7 whole entry): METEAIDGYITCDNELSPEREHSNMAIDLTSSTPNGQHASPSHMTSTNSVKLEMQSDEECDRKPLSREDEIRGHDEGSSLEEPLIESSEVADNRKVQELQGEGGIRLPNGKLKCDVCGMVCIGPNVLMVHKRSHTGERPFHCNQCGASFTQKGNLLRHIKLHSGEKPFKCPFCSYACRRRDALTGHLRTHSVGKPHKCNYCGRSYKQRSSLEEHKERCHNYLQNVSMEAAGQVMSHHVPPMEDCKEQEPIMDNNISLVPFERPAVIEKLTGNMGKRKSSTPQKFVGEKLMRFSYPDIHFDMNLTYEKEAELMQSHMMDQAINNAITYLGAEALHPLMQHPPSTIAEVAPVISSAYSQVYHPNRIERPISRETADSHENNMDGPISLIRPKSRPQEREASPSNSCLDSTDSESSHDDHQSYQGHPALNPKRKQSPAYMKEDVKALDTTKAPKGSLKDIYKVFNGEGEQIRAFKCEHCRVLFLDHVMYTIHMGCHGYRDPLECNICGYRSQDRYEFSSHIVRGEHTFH
IKZF2 (Helios), sequence (Q96SW2 whole entry): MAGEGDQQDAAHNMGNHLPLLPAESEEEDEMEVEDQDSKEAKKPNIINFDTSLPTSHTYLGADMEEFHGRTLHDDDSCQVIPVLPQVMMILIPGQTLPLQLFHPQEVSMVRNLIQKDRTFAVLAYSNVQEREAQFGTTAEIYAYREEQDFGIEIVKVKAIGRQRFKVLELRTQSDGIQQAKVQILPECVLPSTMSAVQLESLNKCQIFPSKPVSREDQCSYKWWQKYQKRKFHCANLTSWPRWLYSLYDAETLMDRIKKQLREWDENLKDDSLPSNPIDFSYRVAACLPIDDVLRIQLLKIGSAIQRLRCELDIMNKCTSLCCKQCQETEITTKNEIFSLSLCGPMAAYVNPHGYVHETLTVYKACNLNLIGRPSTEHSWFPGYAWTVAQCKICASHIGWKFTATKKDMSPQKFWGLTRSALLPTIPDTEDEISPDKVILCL
IKZF2 (Helios), sequence (Q16531 whole entry partner): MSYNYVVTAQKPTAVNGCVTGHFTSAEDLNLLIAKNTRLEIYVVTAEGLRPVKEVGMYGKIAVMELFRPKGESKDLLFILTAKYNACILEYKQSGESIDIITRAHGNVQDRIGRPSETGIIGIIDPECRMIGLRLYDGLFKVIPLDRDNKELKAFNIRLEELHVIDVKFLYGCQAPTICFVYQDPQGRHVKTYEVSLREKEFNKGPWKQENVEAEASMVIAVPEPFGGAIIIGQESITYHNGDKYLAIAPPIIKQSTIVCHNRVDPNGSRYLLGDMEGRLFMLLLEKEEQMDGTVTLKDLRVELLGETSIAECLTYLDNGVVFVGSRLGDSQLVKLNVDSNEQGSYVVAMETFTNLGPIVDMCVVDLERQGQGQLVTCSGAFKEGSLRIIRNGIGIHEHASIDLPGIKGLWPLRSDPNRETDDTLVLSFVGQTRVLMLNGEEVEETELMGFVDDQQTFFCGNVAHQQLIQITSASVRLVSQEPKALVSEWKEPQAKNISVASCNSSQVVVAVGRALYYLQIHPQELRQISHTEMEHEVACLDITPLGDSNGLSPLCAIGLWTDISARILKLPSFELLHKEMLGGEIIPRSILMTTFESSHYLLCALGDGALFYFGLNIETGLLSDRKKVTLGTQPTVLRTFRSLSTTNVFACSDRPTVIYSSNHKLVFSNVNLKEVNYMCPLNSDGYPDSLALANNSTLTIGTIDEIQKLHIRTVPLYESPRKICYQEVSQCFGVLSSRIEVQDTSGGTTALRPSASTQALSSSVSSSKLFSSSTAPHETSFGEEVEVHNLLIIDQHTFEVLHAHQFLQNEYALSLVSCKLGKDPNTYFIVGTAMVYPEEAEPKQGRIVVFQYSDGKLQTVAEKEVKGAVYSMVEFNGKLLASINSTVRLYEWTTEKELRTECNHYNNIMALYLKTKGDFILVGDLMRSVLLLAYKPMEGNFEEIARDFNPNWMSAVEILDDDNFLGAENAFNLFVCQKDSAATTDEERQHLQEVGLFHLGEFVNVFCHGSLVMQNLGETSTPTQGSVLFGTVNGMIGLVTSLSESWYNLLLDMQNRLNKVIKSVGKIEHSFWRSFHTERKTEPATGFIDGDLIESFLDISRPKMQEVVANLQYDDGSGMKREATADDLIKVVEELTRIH

| IKZF2 % protein reduction at 10 µM [%] | Compound |
| --- | --- |
| 73 | CC1(CN[C@H]2CCCC[C@@H]2Oc2ccc3c(c2)CN(C2CCC(=O)NC2=O)C3=O)CCOCC1 (stereo partly drawn) [I-102, 3-(5-(((1S,2S)-2-(((4-methyltetrahydro-2H-pyran-4-yl)methyl)amino)cyclohexyl)oxy)-1-oxoisoindolin-2-yl)piperidine-2,6-dione] |
| 54 | O=C1CCC(N2Cc3cc(O[C@H]4CCCC[C@@H]4NCc4cncnc4)ccc3C2=O)C(=O)N1 (stereo partly drawn) [I-103, 3-(1-oxo-5-(((1S,2S)-2-((pyrimidin-5-ylmethyl)amino)cyclohexyl)oxy)isoindolin-2-yl)piperidine-2,6-dione] |
| 87 | O=C1CCC(N2Cc3cc(O[C@H]4CCCC[C@@H]4NCCC4CCOCC4)ccc3C2=O)C(=O)N1 (stereo partly drawn) [I-104, 3-(1-oxo-5-(((1S,2S)-2-((2-(tetrahydro-2H-pyran-4-yl)ethyl)amino)cyclohexyl)oxy)isoindolin-2-yl)piperidine-2,6-dione] |
| 89 | CC1(C)CC(CN[C@H]2CCCC[C@@H]2Oc2ccc3c(c2)CN(C2CCC(=O)NC2=O)C3=O)CCO1 (stereo partly drawn) [I-107, 3-(5-(((1S,2S)-2-(((2,2-dimethyltetrahydro-2H-pyran-4-yl)methyl)amino)cyclohexyl)oxy)-1-oxoisoindolin-2-yl)piperidine-2,6-dione] |
| 59 | N#CC1(CN[C@H]2CCCC[C@@H]2Oc2ccc3c(c2)CN(C2CCC(=O)NC2=O)C3=O)CCC1 (stereo partly drawn) [I-111, 1-((((1S,2S)-2-((2-(2,6-dioxopiperidin-3-yl)-1-oxoisoindolin-5-yl)oxy)cyclohexyl)amino)methyl)cyclobutane-1-carbonitrile] |
| 95 | O=C1CCC(N2Cc3cc(O[C@H]4CCCC[C@@H]4N4CC(Oc5ccccc5Cl)C4)ccc3C2=O)C(=O)N1 (stereo partly drawn) [I-112, 3-(5-(((1S,2S)-2-(3-(2-chlorophenoxy)azetidin-1-yl)cyclohexyl)oxy)-1-oxoisoindolin-2-yl)piperidine-2,6-dione] |
| 54 | O=C1CCC(N2Cc3cc(O[C@H]4CCCC[C@@H]4NCc4cnc5ccnn5c4)ccc3C2=O)C(=O)N1 (stereo partly drawn) [I-114, 3-(1-oxo-5-(((1S,2S)-2-((pyrazolo[1,5-a]pyrimidin-6-ylmethyl)amino)cyclohexyl)oxy)isoindolin-2-yl)piperidine-2,6-dione] |
| 65 | O=C1CCC(N2Cc3cc(O[C@H]4CCCC[C@@H]4NCc4ccc(F)cc4F)ccc3C2=O)C(=O)N1 (stereo partly drawn) [I-116, 3-(5-(((1S,2S)-2-((2,4-difluorobenzyl)amino)cyclohexyl)oxy)-1-oxoisoindolin-2-yl)piperidine-2,6-dione] |
| 66 | N#CC12CC(CN[C@H]3CCCC[C@@H]3Oc3ccc4c(c3)CN(C3CCC(=O)NC3=O)C4=O)(C1)C2 (stereo partly drawn) [I-120, 3-((((1S,2S)-2-((2-(2,6-dioxopiperidin-3-yl)-1-oxoisoindolin-5-yl)oxy)cyclohexyl)amino)methyl)bicyclo[1.1.1]pentane-1-carbonitrile] |
| 94 | O=C1CCC(N2Cc3cc(O[C@H]4CCCC[C@@H]4N4CC(Oc5cccc(F)c5)C4)ccc3C2=O)C(=O)N1 (stereo partly drawn) [I-121, 3-(5-(((1S,2S)-2-(3-(3-fluorophenoxy)azetidin-1-yl)cyclohexyl)oxy)-1-oxoisoindolin-2-yl)piperidine-2,6-dione] |
| 84 | O=C1CCC(N2Cc3cc(O[C@H]4CCCC[C@@H]4NCC4CC(F)(F)C4)ccc3C2=O)C(=O)N1 (stereo partly drawn) [I-122, 3-(5-(((1S,2S)-2-(((3,3-difluorocyclobutyl)methyl)amino)cyclohexyl)oxy)-1-oxoisoindolin-2-yl)piperidine-2,6-dione] |
| 82 | COC1CCC(CN[C@H]2CCCC[C@@H]2Oc2ccc3c(c2)CN(C2CCC(=O)NC2=O)C3=O)CC1 (stereo partly drawn) [I-123, 3-(5-(((1S,2S)-2-(((4-methoxycyclohexyl)methyl)amino)cyclohexyl)oxy)-1-oxoisoindolin-2-yl)piperidine-2,6-dione] |
| 70 | N#Cc1ccc(CN[C@H]2CCCC[C@@H]2Oc2ccc3c(c2)CN(C2CCC(=O)NC2=O)C3=O)cc1 (stereo partly drawn) [I-129, 4-((((1S,2S)-2-((2-(2,6-dioxopiperidin-3-yl)-1-oxoisoindolin-5-yl)oxy)cyclohexyl)amino)methyl)benzonitrile] |
| 50 | CN(Cc1ccc(C#N)cc1)[C@H]1CCCC[C@@H]1Oc1ccc2c(c1)CN(C1CCC(=O)NC1=O)C2=O (stereo partly drawn) [I-130, 4-((((1S,2S)-2-((2-(2,6-dioxopiperidin-3-yl)-1-oxoisoindolin-5-yl)oxy)cyclohexyl)(methyl)amino)methyl)benzonitrile] |
| 91 | CC(C)N[C@H]1CCCC[C@@H]1Oc1ccc2c(c1)CN(C1CCC(=O)NC1=O)C2=O (stereo partly drawn) [I-131, 3-(5-(((1S,2S)-2-(isopropylamino)cyclohexyl)oxy)-1-oxoisoindolin-2-yl)piperidine-2,6-dione] |
| 80 | N#Cc1cccc(CN[C@H]2CCCC[C@@H]2Oc2ccc3c(c2)CN(C2CCC(=O)NC2=O)C3=O)c1 (stereo partly drawn) [I-132, 3-((((1S,2S)-2-((2-(2,6-dioxopiperidin-3-yl)-1-oxoisoindolin-5-yl)oxy)cyclohexyl)amino)methyl)benzonitrile] |
| 81 | O=C1CCC(N2Cc3cc(O[C@H]4CCCC[C@@H]4NCC45CC(F)(C4)C5)ccc3C2=O)C(=O)N1 (stereo partly drawn) [I-133, 3-(5-(((1S,2S)-2-(((3-fluorobicyclo[1.1.1]pentan-1-yl)methyl)amino)cyclohexyl)oxy)-1-oxoisoindolin-2-yl)piperidine-2,6-dione] |
| 92 | O=C1CCC(N2Cc3cc(O[C@H]4CCCC[C@@H]4N4CC(Oc5cccnc5)C4)ccc3C2=O)C(=O)N1 (stereo partly drawn) [I-135, 3-(1-oxo-5-(((1S,2S)-2-(3-(pyridin-3-yloxy)azetidin-1-yl)cyclohexyl)oxy)isoindolin-2-yl)piperidine-2,6-dione] |
| 83 | CC(C)CN[C@H]1CCC[C@@H]1Oc1ccc2c(c1)CN(C1CCC(=O)NC1=O)C2=O (stereo partly drawn) [I-142, 3-(5-(((1S,2S)-2-(isobutylamino)cyclopentyl)oxy)-1-oxoisoindolin-2-yl)piperidine-2,6-dione] |

The remaining lines, values behind:

| Compound | IKZF2 % protein reduction at 10 µM [%] |
| --- | --- |
| CO[C@H]1CC[C@H](CN[C@H]2CCCC[C@@H]2Oc2ccc3c(c2)CN(C2CCC(=O)NC2=O)C3=O)CC1 (stereo partly drawn) [I-101, 3-(5-(((1S,2S)-2-((((1r,4S)-4-methoxycyclohexyl)methyl)amino)cyclohexyl)oxy)-1-oxoisoindolin-2-yl)piperidine-2,6-dione] | 73 |
| O=C1CCC(N2Cc3cc(O[C@H]4CCCC[C@@H]4N4CCC5(CC4)COC5)ccc3C2=O)C(=O)N1 (stereo partly drawn) [I-105, 3-(5-(((1S,2S)-2-(2-oxa-7-azaspiro[3.5]nonan-7-yl)cyclohexyl)oxy)-1-oxoisoindolin-2-yl)piperidine-2,6-dione] | 52 |
| COC1(CN[C@H]2CCCC[C@@H]2Oc2ccc3c(c2)CN(C2CCC(=O)NC2=O)C3=O)CCOCC1 (stereo partly drawn) [I-106, 3-(5-(((1S,2S)-2-(((4-methoxytetrahydro-2H-pyran-4-yl)methyl)amino)cyclohexyl)oxy)-1-oxoisoindolin-2-yl)piperidine-2,6-dione] | 51 |
| O=C1CCC(N2Cc3cc(O[C@H]4CCCC[C@@H]4NC4CC5(CCOCC5)C4)ccc3C2=O)C(=O)N1 (stereo partly drawn) [I-110, 3-(5-(((1S,2S)-2-((7-oxaspiro[3.5]nonan-2-yl)amino)cyclohexyl)oxy)-1-oxoisoindolin-2-yl)piperidine-2,6-dione] | 89 |
| COc1ccccc1OC1CN([C@H]2CCCC[C@@H]2Oc2ccc3c(c2)CN(C2CCC(=O)NC2=O)C3=O)C1 (stereo partly drawn) [I-113, 3-(5-(((1S,2S)-2-(3-(2-methoxyphenoxy)azetidin-1-yl)cyclohexyl)oxy)-1-oxoisoindolin-2-yl)piperidine-2,6-dione] | 93 |
| O=C1CCC(N2Cc3cc(O[C@H]4CCCC[C@@H]4NC4CCC(F)(F)CC4)ccc3C2=O)C(=O)N1 (stereo partly drawn) [I-115, 3-(5-(((1S,2S)-2-((4,4-difluorocyclohexyl)amino)cyclohexyl)oxy)-1-oxoisoindolin-2-yl)piperidine-2,6-dione] | 90 |
| CCN(CC12CC(F)(C1)C2)[C@H]1CCC[C@@H]1Oc1ccc2c(c1)CN(C1CCC(=O)NC1=O)C2=O (stereo partly drawn) [I-136, 3-(5-(((1S,2S)-2-(ethyl((3-fluorobicyclo[1.1.1]pentan-1-yl)methyl)amino)cyclopentyl)oxy)-1-oxoisoindolin-2-yl)piperidine-2,6-dione] | 58 |
| O=C1CCN([C@H]2CCC[C@@H]2Oc2ccc3c(c2)CN(C2CCC(=O)NC2=O)C3=O)CC1 (stereo partly drawn) [I-137, 3-(1-oxo-5-(((1S,2S)-2-(4-oxopiperidin-1-yl)cyclopentyl)oxy)isoindolin-2-yl)piperidine-2,6-dione] | 80 |
| CC1(O)CCN([C@H]2CCC[C@@H]2Oc2ccc3c(c2)CN(C2CCC(=O)NC2=O)C3=O)CC1 (stereo partly drawn) [I-138, 3-(5-(((1S,2S)-2-(4-hydroxy-4-methylpiperidin-1-yl)cyclopentyl)oxy)-1-oxoisoindolin-2-yl)piperidine-2,6-dione] | 83 |
| O=C1CCC(N2Cc3cc(O[C@H]4CCC[C@@H]4N4CCC(O)C4)ccc3C2=O)C(=O)N1 (stereo partly drawn) [I-139, 3-(5-(((1S,2S)-2-(3-hydroxypyrrolidin-1-yl)cyclopentyl)oxy)-1-oxoisoindolin-2-yl)piperidine-2,6-dione] | 83 |
| CC1(O)CN([C@H]2CCC[C@@H]2Oc2ccc3c(c2)CN(C2CCC(=O)NC2=O)C3=O)C1 (stereo partly drawn) [I-141, 3-(5-(((1S,2S)-2-(3-hydroxy-3-methylazetidin-1-yl)cyclopentyl)oxy)-1-oxoisoindolin-2-yl)piperidine-2,6-dione] | 77 |
| CCN(C)[C@H]1CCC[C@@H]1Oc1ccc2c(c1)CN(C1CCC(=O)NC1=O)C2=O (stereo partly drawn) [I-143, 3-(5-(((1S,2S)-2-(ethyl(methyl)amino)cyclopentyl)oxy)-1-oxoisoindolin-2-yl)piperidine-2,6-dione] | 81 |
| O=C1CCC(N2Cc3cc(O[C@H]4CCC[C@@H]4N4C[C@H]5COC[C@H]5C4)ccc3C2=O)C(=O)N1 (stereo partly drawn) [I-144, 3-(1-oxo-5-(((1S,2S)-2-((3aR,6aS)-tetrahydro-1H-furo[3,4-c]pyrrol-5(3H)-yl)cyclopentyl)oxy)isoindolin-2-yl)piperidine-2,6-dione] | 88 |
